Changes are numbered by the printed parent chain. “Also recorded” adds a separate entry of the source.

Common to all, as to assay type: cell-based
The target of test [1] is T1, H874Y mutant of full-length AR (Homo sapiens, UniProt P10275, H875Y).
T1 sequence (P10275 1-920 H875Y): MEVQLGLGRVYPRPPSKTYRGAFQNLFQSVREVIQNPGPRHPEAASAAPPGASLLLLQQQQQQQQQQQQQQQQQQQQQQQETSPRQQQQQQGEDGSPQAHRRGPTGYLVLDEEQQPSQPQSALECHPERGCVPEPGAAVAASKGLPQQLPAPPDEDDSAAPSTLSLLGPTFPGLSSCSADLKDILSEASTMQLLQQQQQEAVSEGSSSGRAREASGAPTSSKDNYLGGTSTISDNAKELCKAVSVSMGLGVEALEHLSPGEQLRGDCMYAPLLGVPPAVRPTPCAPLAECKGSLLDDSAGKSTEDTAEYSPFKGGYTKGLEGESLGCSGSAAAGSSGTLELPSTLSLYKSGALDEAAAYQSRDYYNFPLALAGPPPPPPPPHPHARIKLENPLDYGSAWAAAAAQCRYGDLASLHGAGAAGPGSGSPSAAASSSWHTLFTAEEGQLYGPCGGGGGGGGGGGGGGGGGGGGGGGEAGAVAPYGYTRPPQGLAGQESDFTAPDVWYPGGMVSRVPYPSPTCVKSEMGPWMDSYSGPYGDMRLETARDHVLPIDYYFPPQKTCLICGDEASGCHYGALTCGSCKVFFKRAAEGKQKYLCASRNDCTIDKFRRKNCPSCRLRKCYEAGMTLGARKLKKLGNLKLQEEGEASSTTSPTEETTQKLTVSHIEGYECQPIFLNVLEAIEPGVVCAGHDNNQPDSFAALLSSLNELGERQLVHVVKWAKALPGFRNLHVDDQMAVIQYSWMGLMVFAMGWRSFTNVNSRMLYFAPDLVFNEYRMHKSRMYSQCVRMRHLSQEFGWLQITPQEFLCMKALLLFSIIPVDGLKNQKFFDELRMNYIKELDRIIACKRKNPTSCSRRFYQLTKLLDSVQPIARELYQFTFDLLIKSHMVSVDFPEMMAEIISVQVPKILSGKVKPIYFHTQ
The test can be described thus: AR H874Y mutant PSA-luc reporter assay in PC3 cells. As to conditions: for inhibition of DHT-induced transactivation of H874Y mutant AR (PSA-luc): 10 nM DHT, PC3 cells, 24 h.

Test [2] deals with T2, T877A mutant of full-length AR (Homo sapiens, UniProt P10275, T878A).
T2 sequence (P10275 1-920 T878A): T1 sequence (P10275 1-920 H875Y) with Y875H, T878A
The experiment in a line: AR T877A mutant PSA-luc reporter assay in PC3 cells. As to conditions: 24 h; for inhibition of DHT-induced transactivation of T877A mutant AR (PSA-luc): 10 nM DHT; for agonism of AR T877A mutant (PSA-luc): absence of DHT. An excerpt: ENZ, enzalutamide; Bic, bicalutamide; OHF, hydroxyflutamide.
(In general: In a reporter assay the amount or activity of a reporter protein is the signal.)

Test [3] addresses T3, endogenous AR T877A mutant in LNCaP cells (Homo sapiens, UniProt P10275, T878A).
T3 construct: LNCaP cells, which express endogenous AR T877A mutant; endogenous in cells; host or cells: LNCaP
T3 sequence (P10275 1-920 T878A): T1 sequence (P10275 1-920 H875Y) with Y875H, T878A
The test can be described thus: PSA-luc reporter assay in LNCaP cells (endogenous AR T877A mutant). The method, then: Experiments were in duplicate and repeated three times. […] LNCaP cells in whole medium were exposed to DMSO vehicle control or compounds for 24 h.

As to `O=C(Nc1cccc(C(F)(F)F)c1)Nc1ccc(NC(=O)c2ccccc2F)c(C(F)(F)F)c1` [Compound 746], in test [1], the “inhibition of DHT-induced transactivation of H874Y mutant AR (PSA-luc)” value (shortened to “inhibition … of H874Y mutant AR (PSA-luc)”) is “inhibit”. Further, in test [2], the “inhibition of DHT-induced transactivation of T877A mutant AR (PSA-luc)” value (“inhibition … of T877A mutant AR (PSA-luc)” for short) is on record as “inhibit”. The “inhibition of DHT-induced activation of endogenous AR in LNCaP cells (PSA-luc)” value (“inhibition of DHT-induced activation … (PSA-luc)” below) in test [3] (24 h) is “suppressed; also recorded: potently inhibited; also recorded: good activity”. In addition, the “inhibitory activity compared with EPI at 25 μM (FIG. 11)” value in test [3] (compound at 2.5 μM) is listed as “greater inhibitory activity than EPI at 25 μM”.
As to `N#Cc1ccc(NC(=O)Nc2cccc(C(F)(F)F)c2)cc1Cl` [Compound 492], in test [1], the “agonism of AR H874Y mutant” value is “non-agonist” and the “inhibition … of H874Y mutant AR (PSA-luc)” value is “dose-dependently suppressed; also recorded: dose-dependently inhibit”. For the same compound, in test [2], the “inhibition … of T877A mutant AR (PSA-luc)” value is “dose-dependently suppressed; also recorded: dose-dependently inhibit” and the “agonism of AR T877A mutant (PSA-luc)” value is given as “non-agonist”.
With `N#Cc1ccc(NC(=O)Nc2cccc(C(F)(F)F)c2)cc1C(F)(F)F` [Compound 467], in test [1], the “agonism of AR H874Y mutant” value is recorded as “non-agonist” and the “inhibition … of H874Y mutant AR (PSA-luc)” value is given as “dose-dependently suppressed; also recorded: dose-dependently inhibit”. Further, in test [2], the “inhibition … of T877A mutant AR (PSA-luc)” value was “dose-dependently suppressed; also recorded: dose-dependently inhibit” and the “agonism of AR T877A mutant (PSA-luc)” value is “non-agonist”. In test [3] (24 h), the “inhibition of DHT-induced activation … (PSA-luc)” value is “potently inhibit; also recorded: suppressed”.
Broadly, the IC50 is the concentration that gives 50% inhibition. The low end stands for higher potency, the high end for lower potency. With `O=C(N/C=C/c1cccc(C(F)(F)F)c1)Nc1ccncn1` [Compound 562], in test [1], the “inhibition … of H874Y mutant AR (PSA-luc)” value is “inhibit”. In addition, the “inhibition … of T877A mutant AR (PSA-luc)” value in test [2] is “inhibit”. Besides, in test [3] (24 h), the “inhibition of DHT-induced activation … (PSA-luc)” value is “suppressed; also recorded: potently inhibited; also recorded: good activity”. In test [3] (FIG. 11), this compound gave an IC50 of approximately 1000 nM.
Turning to `O=C(Nc1cccc(C(F)(F)F)c1)Nc1ccc([N+](=O)[O-])c(C(F)(F)F)c1` [Compound 442], in test [1], the “agonism of AR H874Y mutant” value is “non-agonist” and the “inhibition … of H874Y mutant AR (PSA-luc)” value is given as “dose-dependently suppressed; also recorded: dose-dependently inhibit”. Moreover, in test [2], the “inhibition … of T877A mutant AR (PSA-luc)” value was “dose-dependently suppressed; also recorded: dose-dependently inhibit” and the “agonism of AR T877A mutant (PSA-luc)” value is “non-agonist”. Further, the “inhibition of DHT-induced activation … (PSA-luc)” value in test [3] (24 h) is “potently inhibit; also recorded: suppressed”. For the same compound, in test [3] (PSA-luc, 24 h), the “effect of increasing DHT from 1 nM to 10 nM on inhibitory activity in LNCaP cells” value is “not competed out”.

For the origin of these results see patent US20170273922A1, “UREA AND BIS-UREA BASED COMPOUNDS AND ANALOGUES THEREOF USEFUL IN THE TREATMENT OF ANDROGEN RECEPTOR MEDIATED DISEASES OR DISORDERS” (THE ROYAL INSTITUTION FOR THE ADVACEMENT OF LEARNING/MCGILL …, priority 2014, published 2017).
